Data from publication PMC9120017, “Inhibition mechanism of the chloride channel TMEM16A by the pore blocker 1PBC” (Nature Communications, 2022).
Read-outs that look alike come from different tables or passages of the source.

Biological target: T1, mouse TMEM16A mutant Y598A (Mus musculus, UniProt Q8BHY3, Y598A)
T1 construct: expressed in transfected cells; host or cells: HEK293T
T1 sequence (Q8BHY3 1-960 Y598A): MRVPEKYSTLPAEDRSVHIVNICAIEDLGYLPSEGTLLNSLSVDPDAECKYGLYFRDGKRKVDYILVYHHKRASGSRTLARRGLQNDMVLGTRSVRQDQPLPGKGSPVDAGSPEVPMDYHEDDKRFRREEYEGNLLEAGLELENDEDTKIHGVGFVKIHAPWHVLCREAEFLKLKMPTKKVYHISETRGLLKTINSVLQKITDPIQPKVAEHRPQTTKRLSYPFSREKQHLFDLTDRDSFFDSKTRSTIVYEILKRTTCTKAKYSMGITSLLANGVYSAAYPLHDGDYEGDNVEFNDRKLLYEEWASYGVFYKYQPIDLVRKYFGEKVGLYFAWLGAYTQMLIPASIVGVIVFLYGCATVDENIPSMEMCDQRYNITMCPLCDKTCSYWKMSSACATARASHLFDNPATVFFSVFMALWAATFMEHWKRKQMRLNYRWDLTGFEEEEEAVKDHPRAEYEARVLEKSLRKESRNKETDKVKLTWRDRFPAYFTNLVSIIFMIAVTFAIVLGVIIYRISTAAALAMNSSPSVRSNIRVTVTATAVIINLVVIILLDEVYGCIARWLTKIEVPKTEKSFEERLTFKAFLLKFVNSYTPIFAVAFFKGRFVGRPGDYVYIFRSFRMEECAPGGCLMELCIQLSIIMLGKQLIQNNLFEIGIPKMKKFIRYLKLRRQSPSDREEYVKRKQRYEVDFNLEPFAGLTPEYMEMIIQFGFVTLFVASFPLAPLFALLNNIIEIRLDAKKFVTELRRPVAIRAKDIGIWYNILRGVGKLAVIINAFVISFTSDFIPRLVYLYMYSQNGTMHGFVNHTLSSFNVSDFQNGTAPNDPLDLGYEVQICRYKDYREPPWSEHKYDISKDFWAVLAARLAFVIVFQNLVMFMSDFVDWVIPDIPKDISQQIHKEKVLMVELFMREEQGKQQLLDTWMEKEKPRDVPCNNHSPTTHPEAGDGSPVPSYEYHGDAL
Assay: Inside-out patch recording of 1PBC block, mutant Y598A
Assay type: cell-based
Settings: for remaining activity at 30 µM: 1PBC conc 30; for remaining activity at 30 µM / remaining activity at 3 µM / remaining activity at 10 µM: read-out: relative current in 1PBC (avr); for remaining activity at 3 µM: 1PBC conc 3; for remaining activity at 10 µM: 1PBC conc 10
Method: HEK293T cells (ATCC CRL-1573) were maintained in Dulbecco’s modified Eagle’s medium (DMEM; Sigma-Aldrich) supplemented with 10 U ml^−1 penicillin, 0.1 mg ml^−1 streptomycin (Sigma-Aldrich), 2 mM L-glutamine (Sigma-Aldrich), and 10% FBS (Sigma-Aldrich) in a humidified atmosphere containing 5% CO2 at 37 °C. HEK293S GnTI^− cells (ATCC CRL-3022) were maintained in HyClone HyCell TransFx-H medium (GE Healthcare) supplemented with 10 U ml^−1 penicillin, 0.1 mg ml^−1 streptomycin, 4 mM L-glutamine, 0.15% poloxamer 188 (Sigma-Aldrich), and 1% FBS in an atmosphere containing 5% CO2 at 185 rpm at 37 °C. The ac splice variant of mouse TMEM16A (UniProt ID: Q8BHY3), mouse TMEM16B (UniProt ID: Q8CFW1), or mouse TMEM16F (UniProt ID: Q6P9J9) bearing a 3C cleavage site, a Venus YFP, a Myc tag, and a Streptavidin-binding peptide (SBP) downstream of the open reading frame in a modified pcDNA3.1 vector (Invitrogen) were used as described previously[21],[31]. Mutations were introduced using a modified QuikChange method[58] and were verified by sequencing.
HEK293T cells were transfected with 3–4 μg DNA per 6 cm Petri dish using the calcium phosphate co-precipitation method and were used within 24–96 h after transfection. Recordings were performed on inside-out patches excised from HEK293T cells expressing the construct of interest. Patch pipettes were pulled from borosilicate glass capillaries (O.D. 1.5 mm, I.D. 0.86 mm, Sutter Instrument) and were fire-polished with a microforge (Narishige) before use. Pipette resistance was typically 3–8 MΩ when filled with the recording solutions detailed below. Seal resistance was typically 4 GΩ or higher. Voltage-clamp recordings were made using Axopatch 200B, Digidata 1550, and Clampex 10.7 (Molecular Devices). Analog signals were filtered with the in-built 4-pole Bessel filter at 10 kHz and were digitized at 20 kHz. Solution exchange was achieved using a gravity-fed system through a theta glass pipette mounted on an ultra-fast piezo-driven stepper (Siskiyou). […] All recordings were performed at 20 °C.
A symmetrical ionic condition was used throughout. Stock solution with Ca^2+-EGTA contained 150 mM NaCl, 5.99 mM Ca(OH)2, 5 mM EGTA, and 10 mM HEPES at pH 7.40. Stock solution with EGTA contained 150 mM NaCl, 5 mM EGTA, and 10 mM HEPES at pH 7.40. Free Ca^2+ concentrations were adjusted by mixing the stock solutions at the required ratios calculated using the WEBMAXC program (http://web.stanford.edu/~cpatton/webmaxcS.htm). Patch pipettes were filled with the stock solution with Ca^2+-EGTA, which has a free Ca^2+ concentration of 1 mM. 1PBC (ChemBridge) stock was reconstituted in anhydrous DMSO (Sigma-Aldrich) at 100 mM and stored at −20 °C. Working solutions with 1PBC were prepared by serial dilution. Unless otherwise stated, experiments were performed at a saturating Ca^2+ concentration as shown in Supplementary Table 1 and the primary data were corrected for current rundown as described previously[21],[25].
Concentration-response relations, obtained from the ratio of the I-V plots before and after the application of the blocker, were fitted to the Hill equation,1 I/Imax=1/1+IC50/[blocker]^h where I/Imax is the normalized current responses, IC50 defines the concentration at which inhibition is at its half-maximum, and h is the Hill coefficient.

## N#Cc1c(C(F)(F)F)cc(O)n2c1nc1ccccc12 [1PBC]
60 mV
  remaining activity at 30 µM: 13.4%
80 mV
  log-fold IC50 (change of mutant vs WT): 0.1976
  remaining activity at 3 µM: 48.1%
  remaining activity at 10 µM: 23.9%
  remaining activity at 30 µM: 14.5%
80 mV, 2 µM Ca2+
  IC50: 3.04 µM
100 mV, 2 µM Ca2+
  IC50: 3.06 µM
100 mV
  remaining activity at 3 µM: 48%
  remaining activity at 10 µM: 24.1%
  remaining activity at 30 µM: 15.1%
120 mV, 2 µM Ca2+
  IC50: 3.13 µM
120 mV
  remaining activity at 3 µM: 47.7%
  remaining activity at 10 µM: 25.3%
  remaining activity at 30 µM: 16.4%
140 mV, 2 µM Ca2+
  IC50: 3.81 µM
140 mV
  remaining activity at 3 µM: 53.3%
  remaining activity at 10 µM: 27.9%
  remaining activity at 30 µM: 17%
-20 mV, 2 µM Ca2+
  IC50: 5.71 µM
-20 mV
  remaining activity at 3 µM: 66.7%
  remaining activity at 10 µM: 35.5%
  remaining activity at 30 µM: 15.5%
-40 mV, 2 µM Ca2+
  IC50: 7.02 µM
-40 mV
  remaining activity at 3 µM: 71.1%
  remaining activity at 10 µM: 40.1%
  remaining activity at 30 µM: 19.4%
-60 mV, 2 µM Ca2+
  IC50: 8.86 µM
-60 mV
  remaining activity at 3 µM: 75.3%
  remaining activity at 10 µM: 47.3%
  remaining activity at 30 µM: 21.7%
-80 mV, 2 µM Ca2+
  IC50: 11.2 µM
-80 mV
  remaining activity at 3 µM: 79.4%
  remaining activity at 10 µM: 53.2%
  remaining activity at 30 µM: 26.4%
-100 mV, 2 µM Ca2+
  IC50: 13.5 µM
-100 mV
  remaining activity at 3 µM: 81.5%
  remaining activity at 10 µM: 59.2%
  remaining activity at 30 µM: 29.3%
-120 mV, 2 µM Ca2+
  IC50: 15.9 µM
-120 mV
  remaining activity at 3 µM: 85.1%
  remaining activity at 10 µM: 62.4%
  remaining activity at 30 µM: 33%
-140 mV, 2 µM Ca2+
  IC50: 18 µM
-140 mV
  remaining activity at 3 µM: 87.9%
  remaining activity at 10 µM: 64.1%
  remaining activity at 30 µM: 36.6%
Y598A, V 0 mV
  IC50: 5 µM
Y598A, V 20 mV
  IC50: 4.35 µM
Y598A, V 40 mV
  IC50: 3.57 µM
Y598A, V 60 mV
  IC50: 3.16 µM
Y598A, V 80 mV
  IC50: 3.04 µM
Y598A, V 100 mV
  IC50: 3.06 µM
Y598A, V 120 mV
  IC50: 3.13 µM
Y598A, V 140 mV
  IC50: 3.81 µM
Y598A, V -20 mV
  IC50: 5.71 µM
Y598A, V -40 mV
  IC50: 7.02 µM
Y598A, V -60 mV
  IC50: 8.86 µM
Y598A, V -80 mV
  IC50: 11.2 µM
Y598A, V -100 mV
  IC50: 13.5 µM
Y598A, V -120 mV
  IC50: 15.9 µM
Y598A, V -140 mV
  IC50: 18 µM
